Values after ≈ are worked out from the molar mass of the structure shown.
What was measured:
Experiment in all cases: Bacterial growth minimal inhibitory concentration (microdilution, cation-adjusted Mueller-Hinton Broth)
S. aureus A798 = assay type: cell-based, Staphylococcus aureus; conditions: for MIC: Staphylococcus aureus, A798, Table 1, multiply-resistant (quinolone-resistant) strain
Method: (§1) Minimal Inhibitory Concentrations (MICs; mg/L) were determined in cation-adjusted Mueller-Hinton Broth by a microdilution method following the description given in “Methods for Dilution Antimicrobial Susceptibility Tests for Bacteria that Grow Aerobically”, Approved standard, 7^1 ed., Clinical and Laboratory Standards Institute (CLSI) Document M7-A7, Wayne, Pa., USA (2006).
(§2) All Example compounds were tested against relevant Gram positive and Gram negative bacteria. […] Staphylococcus aureus A798 and Acinetobacter baumannii T6474 are multiply-resistant strains (in particular quinolone-resistant), whereas Moraxella catarrhalis A894 and Enterococcus faecalis ATCC29212 are quinolone-sensitive strains.

E. faecalis ATCC 29212 = assay type: cell-based, Enterococcus faecalis; conditions: quinolone-sensitive strain; for MIC: Enterococcus faecalis, ATCC29212, Table 1
Method: as §1, §2

M. catarrhalis A894 = assay type: cell-based, Moraxella catarrhalis; conditions: quinolone-sensitive strain; for MIC: Moraxella catarrhalis, A894, Table 1
Method: as §1, §2

A. baumannii T6474 = assay type: cell-based, Acinetobacter baumannii; conditions: for MIC: Acinetobacter baumannii, T6474, Table 1, multiply-resistant (quinolone-resistant) strain
Method: as §1, §2

[1] = Table 2, comparison with Example 50 of WO 2014/170821, multiply-resistant strain
[2] = Table 2, comparison with Example 50 of WO 2014/170821

| MIC (S. aureus A798) [µg/mL] | MIC (E. faecalis ATCC 29212) [µg/mL] | MIC (M. catarrhalis A894) [µg/mL] | MIC (A. baumannii T6474) [µg/mL] | MIC for S. aureus A798 (S. aureus A798; [1]) [µg/mL] | MIC for E. faecalis ATCC 29212 (E. faecalis ATCC 29212; [2]) [µg/mL] | MIC for M. catarrhalis A894 (M. catarrhalis A894; [2]) [µg/mL] | MIC for A. baumannii T6474 (A. baumannii T6474; [1]) [µg/mL] | SMILES |
| --- | --- | --- | --- | --- | --- | --- | --- | --- |
| ≤ 0.031 | 0.25 (≈ 0.481 µM) | ≤ 0.031 | 0.125 (≈ 0.241 µM) |  |  |  |  | O=C1COc2ccc(N3C[C@H](CCNCc4cc(-c5cncc(OC6COC6)n5)ccn4)OC3=O)nc2N1 [Example 1, 6-{(S)-5-[2-({4-[6-(oxetan-3-yloxy)-pyrazin-2-yl]-pyridin-2-ylmethyl}-amino)-ethyl]-2-oxo-oxazolidin-3-yl}-4H-pyrido[3,2-b][1,4]oxazin-3-one] |
| ≤ 0.031 | 0.25 (≈ 0.483 µM) | ≤ 0.031 | 0.125 (≈ 0.242 µM) |  |  |  |  | O=C1COc2ccc(-n3cc(CCNCc4cc(-c5cncc(OC6COC6)n5)ccn4)oc3=O)nc2N1 [Example 2, 6-{5-[2-({4-[6-(oxetan-3-yloxy)-pyrazin-2-yl]-pyridin-2-ylmethyl}-amino)-ethyl]-2-oxo-oxazol-3-yl}-4H-pyrido[3,2-b][1,4]oxazin-3-one] |
| 1 (≈ 1.93 µM) | 1 (≈ 1.93 µM) | 0.25 (≈ 0.482 µM) | 1 (≈ 1.93 µM) |  |  |  |  | O=C1COc2ccc(N3C[C@H](CCNCc4cc(-c5cc(OC6COC6)ccn5)ccn4)OC3=O)nc2N1 [Example 3, 6-[(S)-5-(2-{[4-(oxetan-3-yloxy)-[2,4′]bipyridinyl-2′-ylmethyl]-amino}-ethyl)-2-oxo-oxazolidin-3-yl]-4H-pyrido[3,2-b][1,4]oxazin-3-one] |
| ≤ 0.031 | 0.25 (≈ 0.481 µM) | ≤ 0.031 | 0.125 (≈ 0.241 µM) |  |  |  |  | O=C1COc2ccc(N3C[C@H](CCNCc4cc(-c5nccc(OC6COC6)n5)ccn4)OC3=O)nc2N1 [Example 4, 6-{(S)-5-[2-({4-[4-(oxetan-3-yloxy)-pyrimidin-2-yl]-pyridin-2-ylmethyl}-amino)-ethyl]-2-oxo-oxazolidin-3-yl}-4H-pyrido[3,2-b][1,4]oxazin-3-one] |
| 8 (≈ 15.4 µM) | 8 (≈ 15.4 µM) | 0.5 (≈ 0.962 µM) | 8 (≈ 15.4 µM) |  |  |  |  | O=C1COc2ccc(N3C[C@H](CCNCc4cc(-c5cc(OC6COC6)cnn5)ccn4)OC3=O)nc2N1 [Example 5, 6-{(S)-5-[2-({4-[5-(oxetan-3-yloxy)-pyridazin-3-yl]-pyridin-2-ylmethyl}-amino)-ethyl]-2-oxo-oxazolidin-3-yl}-4H-pyrido[3,2-b][1,4]oxazin-3-one] |
| ≤ 0.031 | 0.25 (≈ 0.483 µM) | ≤ 0.031 | 0.25 (≈ 0.483 µM) |  |  |  |  | O=C1COc2ccc(N3C[C@H](CCNCc4cccc(-c5cccc(OC6COC6)n5)c4)OC3=O)nc2N1 [Example 6, 6-[(S)-5-(2-{3-[6-(oxetan-3-yloxy)-pyridin-2-yl]-benzylamino}-ethyl)-2-oxo-oxazolidin-3-yl]-4H-pyrido[3,2-b][1,4]oxazin-3-one] |
| ≤ 0.031 | 0.5 (≈ 0.962 µM) | ≤ 0.031 | 0.5 (≈ 0.962 µM) |  |  |  |  | O=C1COc2ccc(N3C[C@H](CCNCc4ccnc(-c5cncc(OC6COC6)n5)c4)OC3=O)nc2N1 [Example 7, 6-{(S)-5-[2-({2-[6-(oxetan-3-yloxy)-pyrazin-2-yl]-pyridin-4-ylmethyl}-amino)-ethyl]-2-oxo-oxazolidin-3-yl}-4H-pyrido[3,2-b][1,4]oxazin-3-one] |
| 0.5 (≈ 0.964 µM) | 4 (≈ 7.71 µM) | 0.25 (≈ 0.482 µM) | 1 (≈ 1.93 µM) |  |  |  |  | O=C1COc2ccc(N3C[C@H](CCNCc4cccc(-c5cc(OC6COC6)cnn5)c4)OC3=O)nc2N1 [Example 8, 6-[(S)-5-(2-{3-[5-(oxetan-3-yloxy)-pyridazin-3-yl]-benzylamino}-ethyl)-2-oxo-oxazolidin-3-yl]-4H-pyrido[3,2-b][1,4]oxazin-3-one] |
| 0.125 (≈ 0.242 µM) | 0.5 (≈ 0.968 µM) | ≤ 0.031 | 1 (≈ 1.94 µM) | 0.125 | 0.5 | ≤0.031 | 1 | O=C1COc2ccc(N3C[C@H](CCNCc4cccc(-c5cccc(OC6COC6)c5)c4)OC3=O)nc2N1 [Example 9, 6-[(S)-5-(2-{[3′-(oxetan-3-yloxy)-biphenyl-3-ylmethyl]-amino}-ethyl)-2-oxo-oxazolidin-3-yl]-4H-pyrido[3,2-b][1,4]oxazin-3-one] |
| 0.25 (≈ 0.481 µM) | 0.5 (≈ 0.962 µM) | 0.063 (≈ 0.121 µM) | 0.25 (≈ 0.481 µM) |  |  |  |  | O=C1COc2ccc(N3C[C@@H](CCNCc4cc(-c5nccc(OC6COC6)n5)ccn4)OC3=O)nc2N1 [Example 10, 6-{(R)-5-[2-({4-[4-(oxetan-3-yloxy)-pyrimidin-2-yl]-pyridin-2-ylmethyl}-amino)-ethyl]-2-oxo-oxazolidin-3-yl}-4H-pyrido[3,2-b][1,4]oxazin-3-one] |
| ≤ 0.031 | 0.125 (≈ 0.233 µM) | ≤ 0.031 | 0.125 (≈ 0.233 µM) |  |  |  |  | O=C1CSc2ccc(N3C[C@H](CCNCc4cc(-c5nccc(OC6COC6)n5)ccn4)OC3=O)nc2N1 [Example 11, 6-{(S)-5-[2-({4-[4-(oxetan-3-yloxy)-pyrimidin-2-yl]-pyridin-2-ylmethyl}-amino)-ethyl]-2-oxo-oxazolidin-3-yl}-4H-pyrido[3,2-b][1,4]thiazin-3-one] |
| ≤ 0.031 | 0.25 (≈ 0.468 µM) | ≤ 0.031 | 0.25 (≈ 0.468 µM) |  |  |  |  | O=C1CSc2ccc(N3C[C@H](CCNCc4cc(-c5nccc(OC6COC6)n5)ccn4)OC3=O)cc2N1 [Example 12, 6-{(S)-5-[2-({4-[4-(oxetan-3-yloxy)-pyrimidin-2-yl]-pyridin-2-ylmethyl}-amino)-ethyl]-2-oxo-oxazolidin-3-yl}-4H-benzo[1,4]thiazin-3-one] |
| ≤ 0.031 | 0.5 (≈ 0.966 µM) | ≤ 0.031 | 0.125 (≈ 0.242 µM) |  |  |  |  | O=C1COc2ccc(-n3cc(CCNCc4cc(-c5nccc(OC6COC6)n5)ccn4)oc3=O)nc2N1 [Example 13, 6-{5-[2-({4-[4-(oxetan-3-yloxy)-pyrimidin-2-yl]-pyridin-2-ylmethyl}-amino)-ethyl]-2-oxo-oxazol-3-yl}-4H-pyrido[3,2-b][1,4]oxazin-3-one] |
| 1 (≈ 1.87 µM) | 4 (≈ 7.47 µM) | 0.5 (≈ 0.934 µM) | 4 (≈ 7.47 µM) |  |  |  |  | O=C1COc2ccc(N3C[C@H](CCNCc4cc(-c5cncc(OC6COC6)n5)c(O)cn4)OC3=O)nc2N1 [Example 14, 6-{(S)-5-[2-({5-hydroxy-4-[6-(oxetan-3-yloxy)-pyrazin-2-yl]-pyridin-2-ylmethyl}-amino)-ethyl]-2-oxo-oxazolidin-3-yl}-4H-pyrido[3,2-b][1,4]oxazin-3-one] |
| ≤ 0.031 | 0.25 (≈ 0.467 µM) | ≤ 0.031 | 0.25 (≈ 0.467 µM) |  |  |  |  | O=C1COc2ccc(N3C[C@H](CCNCc4cc(-c5nccc(OC6COC6)n5)c(O)cn4)OC3=O)nc2N1 [Example 15, 6-{(S)-5-[2-({5-hydroxy-4-[4-(oxetan-3-yloxy)-pyrimidin-2-yl]-pyridin-2-ylmethyl}-amino)-ethyl]-2-oxo-oxazolidin-3-yl}-4H-pyrido[3,2-b][1,4]oxazin-3-one] |
| 0.25 (≈ 0.467 µM) | 2 (≈ 3.73 µM) | 0.25 (≈ 0.467 µM) | 1 (≈ 1.87 µM) |  |  |  |  | O=C1COc2ccc(N3C[C@H](CCNCc4nccc(-c5cncc(OC6COC6)n5)c4O)OC3=O)nc2N1 [Example 16, 6-{(S)-5-[2-({3-Hydroxy-4-[6-(oxetan-3-yloxy)-pyrazin-2-yl]-pyridin-2-ylmethyl}-amino)-ethyl]-2-oxo-oxazolidin-3-yl}-4H-pyrido[3,2-b][1,4]oxazin-3-one] |

Source: patent US20200325154A1, “ANTIBACTERIAL BIAROMATIC DERIVATIVES WITH OXETANE-3-YLOXY SUBSTITUTION” (priority 2016, published 2020)
